The source made the active and inactive calls.
How the values were obtained:
HEK293 [1] = assay: NOD1 signaling inhibitors, primary screen, cell-based, luminescence, uHTS (AID 1578); type: functional; settings: Homo sapiens
HEK293 [2] = assay: cells; type: functional, cell-based; settings: Homo sapiens
HEK293 [3] = assay: cells; type: functional, cell-based; settings: Homo sapiens; remark: listed apart in the source
[4] = biological target: Nucleotide-binding oligomerization domain-containing protein 2 (Homo sapiens, UniProt Q9HC29); assay: NOD2 signaling inhibitors, cell-based, luminescence, uHTS, HEK293 (AID 1566); type: functional
HEK293 [5] = assay: NOD2 signaling inhibitors in MDP-stimulated cells, cell-based, uHTS, luminescence (AID 2001); type: functional; settings: Homo sapiens
HEK293 [6] = assay: cells; type: functional, cell-based; settings: Homo sapiens; remark: listed apart in the source
CAAX prenyl protease 2 = CAAX prenyl protease 2 (Saccharomyces cerevisiae S288c, UniProt Q03530); type: biochemical
CAAX prenyl protease 1 = CAAX prenyl protease 1 (Saccharomyces cerevisiae S288c, UniProt P47154); assay: Ste24 protease inhibitors, dose response, biochemical, S. cerevisiae, plate reader, cherry-pick (AID 488815)
[7] = biological target: Kappa-type opioid receptor (Homo sapiens, UniProt P41145); assay: SAR analysis of small molecule agonists of the kappa opioid receptor via a luminescent beta-arrestin assay - Set 3. [Related pubchem assays (depositor defined):AID1777, AID1785, AID1786, AID1966, AID2133, AID2136, AID2284, AID2500]; type: functional
Troponin, cardiac muscle = Troponin, cardiac muscle (Homo sapiens, UniProt P19429+P45379+P63316); assay: Fluorescence-based biochemical high throughput dose response assay for activators of the calcium sensitivity of cardiac Regulated Thin Filaments (RTF). [Related pubchem assays (depositor defined):AID493008, AID493018, AID504382, AID504383]; type: protein-complex assay
Exodeoxyribonuclease V = biological target: T1, Exodeoxyribonuclease V (Escherichia coli (strain K12), UniProt P04993+P07648+P08394); assay: E. coli RecBCD inhibitors, dose response, counter-screen for AddAB inhibitor project, absorbance, V66 E. coli, mutant T4 phage (AID 492957); type: functional, cell-based, Escherichia coli str. K-12 substr. MG1655
T1 sequence (P04993 whole entry): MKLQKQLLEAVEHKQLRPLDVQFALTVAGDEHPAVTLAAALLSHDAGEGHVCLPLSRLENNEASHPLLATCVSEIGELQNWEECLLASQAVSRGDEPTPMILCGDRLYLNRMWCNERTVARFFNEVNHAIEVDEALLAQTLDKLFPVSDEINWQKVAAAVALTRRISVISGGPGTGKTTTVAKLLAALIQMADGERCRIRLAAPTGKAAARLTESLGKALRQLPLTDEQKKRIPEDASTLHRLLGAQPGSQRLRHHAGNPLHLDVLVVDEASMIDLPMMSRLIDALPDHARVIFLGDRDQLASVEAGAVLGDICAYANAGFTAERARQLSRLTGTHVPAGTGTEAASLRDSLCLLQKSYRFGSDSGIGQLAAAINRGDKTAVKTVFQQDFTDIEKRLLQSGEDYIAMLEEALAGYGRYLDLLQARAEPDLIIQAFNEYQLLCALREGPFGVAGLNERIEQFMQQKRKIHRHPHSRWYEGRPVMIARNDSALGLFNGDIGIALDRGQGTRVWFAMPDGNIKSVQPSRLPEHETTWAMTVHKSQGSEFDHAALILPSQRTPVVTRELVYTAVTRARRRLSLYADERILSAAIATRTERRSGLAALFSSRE
T1 sequence (P07648 whole entry): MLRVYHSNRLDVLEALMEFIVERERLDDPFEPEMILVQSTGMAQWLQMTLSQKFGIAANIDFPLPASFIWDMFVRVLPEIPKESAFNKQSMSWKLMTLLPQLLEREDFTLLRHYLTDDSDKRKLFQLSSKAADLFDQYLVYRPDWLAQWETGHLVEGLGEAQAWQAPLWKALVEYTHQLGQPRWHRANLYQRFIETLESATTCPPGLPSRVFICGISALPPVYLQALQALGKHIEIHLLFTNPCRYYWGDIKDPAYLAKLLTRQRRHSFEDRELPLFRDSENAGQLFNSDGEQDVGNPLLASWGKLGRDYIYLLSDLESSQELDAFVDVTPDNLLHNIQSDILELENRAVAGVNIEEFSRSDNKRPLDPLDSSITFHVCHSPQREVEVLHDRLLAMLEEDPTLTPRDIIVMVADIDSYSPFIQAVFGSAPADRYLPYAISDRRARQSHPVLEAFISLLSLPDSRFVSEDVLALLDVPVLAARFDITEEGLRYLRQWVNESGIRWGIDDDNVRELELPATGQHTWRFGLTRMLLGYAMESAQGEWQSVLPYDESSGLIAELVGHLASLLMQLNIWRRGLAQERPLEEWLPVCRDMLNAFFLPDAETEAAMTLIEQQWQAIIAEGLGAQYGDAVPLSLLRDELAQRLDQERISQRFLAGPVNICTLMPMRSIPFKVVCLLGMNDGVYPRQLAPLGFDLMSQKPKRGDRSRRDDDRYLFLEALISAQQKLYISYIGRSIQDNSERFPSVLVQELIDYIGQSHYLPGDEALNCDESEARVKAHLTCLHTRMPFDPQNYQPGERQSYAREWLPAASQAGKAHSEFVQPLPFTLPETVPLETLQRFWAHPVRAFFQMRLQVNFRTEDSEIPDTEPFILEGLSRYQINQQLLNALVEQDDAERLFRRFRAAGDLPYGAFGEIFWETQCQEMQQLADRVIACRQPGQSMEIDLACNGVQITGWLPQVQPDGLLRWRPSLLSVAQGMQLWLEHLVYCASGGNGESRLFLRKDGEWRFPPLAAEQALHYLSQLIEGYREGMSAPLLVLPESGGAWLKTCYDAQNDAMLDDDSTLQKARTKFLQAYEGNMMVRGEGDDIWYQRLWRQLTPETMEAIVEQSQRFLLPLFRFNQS
T1 sequence (P08394 whole entry): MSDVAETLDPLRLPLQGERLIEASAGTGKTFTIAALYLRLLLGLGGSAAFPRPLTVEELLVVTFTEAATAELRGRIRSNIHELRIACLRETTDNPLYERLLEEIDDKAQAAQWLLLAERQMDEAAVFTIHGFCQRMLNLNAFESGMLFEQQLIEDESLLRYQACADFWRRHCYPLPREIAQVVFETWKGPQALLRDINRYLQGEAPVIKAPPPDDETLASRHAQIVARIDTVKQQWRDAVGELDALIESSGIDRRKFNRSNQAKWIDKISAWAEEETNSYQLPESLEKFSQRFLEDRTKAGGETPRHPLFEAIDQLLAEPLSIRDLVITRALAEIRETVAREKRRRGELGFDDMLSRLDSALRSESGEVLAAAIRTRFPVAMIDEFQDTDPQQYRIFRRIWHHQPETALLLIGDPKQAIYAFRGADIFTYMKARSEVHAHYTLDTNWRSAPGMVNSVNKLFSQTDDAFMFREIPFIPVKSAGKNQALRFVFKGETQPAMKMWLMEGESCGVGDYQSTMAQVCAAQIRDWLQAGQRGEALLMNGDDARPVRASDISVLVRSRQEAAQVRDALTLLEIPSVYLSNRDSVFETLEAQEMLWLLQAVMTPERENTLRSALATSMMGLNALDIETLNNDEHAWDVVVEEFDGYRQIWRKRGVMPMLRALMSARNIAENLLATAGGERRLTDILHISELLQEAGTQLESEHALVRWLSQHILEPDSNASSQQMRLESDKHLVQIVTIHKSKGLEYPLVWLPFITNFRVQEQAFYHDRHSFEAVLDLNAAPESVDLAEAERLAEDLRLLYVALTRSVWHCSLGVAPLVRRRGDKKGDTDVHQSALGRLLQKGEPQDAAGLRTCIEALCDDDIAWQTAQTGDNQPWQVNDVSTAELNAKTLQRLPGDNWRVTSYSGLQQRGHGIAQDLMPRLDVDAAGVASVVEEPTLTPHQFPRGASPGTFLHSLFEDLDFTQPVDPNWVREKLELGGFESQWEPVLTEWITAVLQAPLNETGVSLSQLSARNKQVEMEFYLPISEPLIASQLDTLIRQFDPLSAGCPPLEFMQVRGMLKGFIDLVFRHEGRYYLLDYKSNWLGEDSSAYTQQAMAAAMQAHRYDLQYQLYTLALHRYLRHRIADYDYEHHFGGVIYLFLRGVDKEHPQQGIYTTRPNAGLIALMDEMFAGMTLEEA

[8] = THP-1 cell cytotoxicity, dose response, cytotoxicity control for non-replicating M. tuberculosis project (AID 489025); type: functional
[9] = HepG2 cell cytotoxicity, dose response, cytotoxicity control for non-replicating M. tuberculosis project (AID 489018); type: functional; settings: Mycobacterium tuberculosis
[10] = Vero E6 cell cytotoxicity, dose response, cytotoxicity control for non-replicating M. tuberculosis project, secondary assay (AID 492998); type: functional, VeroE6; settings: Vero C1008
[11] = Counterscreen for AddAB inhibitors: absorbance-based bacterial cell-based high throughput dose response assay for inhibitors of bacterial viability. [Related pubchem assays (depositor defined):AID435030, AID449728, AID449731, AID488942, AID488955, AID488956]; type: functional
[12] = biological target: T2, Microphthalmia-associated transcription factor (Homo sapiens, UniProt O75030); assay: TRPM1 promoter luciferase signal decrease, dose response, MITF inhibitor project, cell-based, SK-MEL-5, cherry-picked, set 3 (AID 493073); type: functional
T2 sequence (O75030 whole entry): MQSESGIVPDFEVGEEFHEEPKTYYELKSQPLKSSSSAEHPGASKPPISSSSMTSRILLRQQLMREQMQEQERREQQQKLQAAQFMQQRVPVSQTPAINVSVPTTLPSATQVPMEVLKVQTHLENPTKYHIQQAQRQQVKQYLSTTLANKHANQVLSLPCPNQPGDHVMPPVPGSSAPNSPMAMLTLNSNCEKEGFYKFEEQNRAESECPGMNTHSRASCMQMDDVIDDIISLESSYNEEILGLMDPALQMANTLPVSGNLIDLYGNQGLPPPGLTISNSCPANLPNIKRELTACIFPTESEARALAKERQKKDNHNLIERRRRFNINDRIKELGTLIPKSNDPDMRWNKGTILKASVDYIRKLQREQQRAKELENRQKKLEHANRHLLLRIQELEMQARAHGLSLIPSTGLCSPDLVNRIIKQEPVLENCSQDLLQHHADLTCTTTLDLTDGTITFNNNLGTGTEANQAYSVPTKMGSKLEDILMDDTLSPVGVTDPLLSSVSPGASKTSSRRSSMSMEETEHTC

cells = type: functional
Paired box protein Pax-8 = Paired box protein Pax-8 (Homo sapiens, UniProt Q06710); assay: inhibitors of PAX8-driven TPO luciferase reporter, dose response, RMG-I cells, cherry-pick (AID 687027); type: functional, cell-based;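 further: luciferase reporter driven by Pax8 target thyroperoxidase promoter measured by SteadyGlo luminescence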
[13] = biological target: G-protein coupled receptor 55 (Homo sapiens, UniProt Q9Y2T6); assay: GPR55 antagonists blocking LPI-driven arrestin recruitment, primary screen, imaging, U2OS, beta-arrestin-GFP, LPI agonist (AID 2013); type: functional;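 further: antagonist potency measured as reduced agonist-driven arrestin aggregation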
[14] = biological target: Alkaline phosphatase, placental type (Homo sapiens, UniProt P05187); assay: PLAP enzyme inhibitors, confirmation, biochemical, luminescence (AID 1512); type: functional
[15] = biological target: T3, Alkaline phosphatase, tissue-nonspecific isozyme (Homo sapiens, UniProt P05186); assay: human TNAP enzyme inhibitors, SAR follow-up, biochemical, luminescent, dose response (AID 1056)
T3 sequence (P05186 whole entry): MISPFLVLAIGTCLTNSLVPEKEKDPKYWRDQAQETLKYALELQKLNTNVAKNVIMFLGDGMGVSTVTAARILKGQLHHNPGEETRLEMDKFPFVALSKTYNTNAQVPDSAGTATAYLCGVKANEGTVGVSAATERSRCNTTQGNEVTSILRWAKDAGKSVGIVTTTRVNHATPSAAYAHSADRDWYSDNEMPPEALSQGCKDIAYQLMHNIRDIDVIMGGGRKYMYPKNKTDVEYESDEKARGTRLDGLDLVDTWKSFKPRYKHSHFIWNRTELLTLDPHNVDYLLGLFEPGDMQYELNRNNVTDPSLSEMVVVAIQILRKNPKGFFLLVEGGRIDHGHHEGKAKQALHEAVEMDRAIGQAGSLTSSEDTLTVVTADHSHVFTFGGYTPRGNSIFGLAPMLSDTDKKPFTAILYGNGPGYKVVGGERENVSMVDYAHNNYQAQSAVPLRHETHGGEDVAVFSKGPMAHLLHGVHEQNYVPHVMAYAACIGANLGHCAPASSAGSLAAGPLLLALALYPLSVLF

[16] = biological target: Glyceraldehyde-3-phosphate dehydrogenase (Homo sapiens, UniProt P04406)

Cc1cc(/C=C2\SC(=S)N(C)C2=O)c(C)n1-c1cccc(O)c1
EC50 (HEK293 [1]): 9.29 µM (active) | IC50 (HEK293 [2]): 4.55 µM (active) | IC50 (HEK293 [3]): 9.54 µM (active) | EC50 [4]: 1.1 µM (active) | IC50 (HEK293 [5]): 0.695 µM (active) | IC50 (HEK293 [6]): > 20 µM (inactive)

CN(C)C(=O)COc1ccc2ccc(=O)oc2c1
AC50 (CAAX prenyl protease 2): 41.5 µM (active) | AC50 (CAAX prenyl protease 1): 6.76 µM (active)

Clc1ccccc1Cn1c(SCc2ccc(Br)cc2)nnc1-c1ccccn1
EC50 [7]: 14.2 µM (inactive)

CC1(C)CC(=O)C(/C=N/c2cc(C(=O)c3ccccc3)ccc2N)=C(O)C1
EC50 (Troponin, cardiac muscle): 20.4 µM (inactive)

CC(C)C(=O)N1CCN(c2ccc(NC(=O)c3ccc([N+](=O)[O-])o3)cc2)CC1
IC50 (Exodeoxyribonuclease V): > 119 µM (inactive) | CC50 [8]: 5.52 µM (active) | CC50 [9]: 9.53 µM (active) | CC50 [10]: 3.34 µM (active) | IC50 [11]: > 119 µM (inactive) | AC50 [12]: 7.98 µM (active) | IC50 (cells): 0.54 µM (active) | AC50 (Paired box protein Pax-8): 4.48 µM (active)

Cn1cccc1/C=C1\C(=O)NC(=O)N(Cc2ccccc2Cl)C1=O
IC50 [13]: 0.978 µM (active)

CCCNC(=O)Cn1c(=O)/c(=C\c2ccc(-c3ccc([N+](=O)[O-])cc3)o2)s/c1=C\C(=O)C(C)(C)C
EC50 (Troponin, cardiac muscle): 0.165 µM (active)

Cc1cc(NCC(=O)c2ccc(O)c(O)c2)[nH]n1
IC50 [14]: 5.71 µM (active) | IC50 [15]: 18.3 µM (active)

Nc1nc(Cc2ccc3ccccc3c2)n(-c2ccccc2)n1
IC50 [16]: > 100 µM (not active) | IC50 [14]: > 100 µM (inactive) | IC50 [15]: > 100 µM (inactive)

Source: ChEMBL document CHEMBL1201862, “PubChem BioAssay data set” (2004)
